The target of one test is CDK7/CyclinH/MAT1 (Homo sapiens (Human), UniProt P50613). Nature of the test: In vitro CDK7/CyclinH/MAT1 enzyme activity assay (TR-FRET). The test is classed as biochemical. Conditions: Ulight-MBP peptide, 25° C. 60 minutes. As to the method: Experimental Example 1: In Vitro CDK7/[…] Enzyme Activity Assay
CDK7/CyclinH/MAT1 was purchased from CARNA. Ulight-MBP peptide, Eu-MBP antibody, and 1× detection buffer were purchased from PerkinElmer. High-purity ATP was purchased from Promega. EDTA was purchased from Sigma. Nivo multimode microplate reader (PerkinElmer).
(§1) Preparation of kinase buffer: the kinase buffer containing 50 mM HEPES, 1 mM EDTA, 10 mM MgCl2, 0.01% Brij-35, pH 7.4.
(§2) 2.38 g of HEPES, 58 mg of EDTA, 406 mg of MgCl2, and 20 mg of Brij-35 were added to 200 mL of buffer, and the pH was adjusted to 7.4.
(§3) 100 μL of 1 M EDTA stock solution was mixed with 0.625 μL of 1× detection buffer and 1725 μL of distilled water to prepare the stop solution.
Enzyme, Ulight-MBP peptide, ATP, and inhibitors were diluted with the kinase buffer.
The Eu-MBP antibody was diluted to a concentration of 8 nM/L using detection buffer.
The compounds to be tested were 5-fold diluted with a multi-channel pipette to the 8th concentration, i.e., from 40 μM to 0.512 nM, with a final DMSO concentration of 4%. The experiment was set up in duplicate wells. 2.5 μL of each concentration gradient of the inhibitor was added to the microplate, followed by 5 μL of CDK7/CyclinH/MAT1 enzyme (5 ng), and 2.5 μL of a mixture of substrate and ATP (4 mM ATP, 50 nM Ulight-MBP peptide). At this point, the final concentration gradient of the compound was 10 μM diluted to 0.128 nM. The reaction system was reacted at 25° C. for 60 minutes. After the reaction, 5 μL of stop solution was added to each well, and the reaction was continued at 25° C. for 5 minutes. After stopping the reaction, 5 μL of Eu-MBP antibody dilution was added to each well, and the mixture was reacted at 25° C. for 60 minutes. Data were then collected using the PerkinElmer Nivo multimode microplate reader in TR-FRET mode (excitation wavelength: 320 nm, emission wavelength: 665 nm).
Using the equation (Sample−Min)/(Max−Min)*100% to convert the raw data into inhibition rate, the IC50 value may be obtained by curve fitting with four parameters (obtained by “log (inhibitor) vs. response—Variable slope” mode in GraphPad Prism). Table 1 provides the CDK7/CyclinH/MAT1 enzymatic inhibitory activity of the compounds of the present disclosure.
Background: Time-resolved FRET reads energy transfer from a long-lived donor to a nearby acceptor.

In another test the target is CDK9-CyclinT1 (Homo sapiens (Human), UniProt P50750). Put plainly: In vitro CDK9-CyclinT1 enzyme activity assay (TR-FRET). The test is classed as biochemical. The following applies: Ulight-4E-BP1 peptide, 25° C. 120 minutes. As to the method:
Experimental Example 3: In Vitro CDK9/[…] Enzyme Activity Assay
CDK9-CyclinT1 was purchased from CARNA. Ulight-4E-BP1 peptide, Eu-anti-phospho-tyrosine antibody, and 1× detection buffer were purchased from PerkinElmer. High-purity ATP was purchased from Promega. EDTA was purchased from Sigma. Nivo multimode microplate reader (PerkinElmer).
as §1, §2, §3
Enzyme, Ulight-4E-BP1 peptide, ATP, and inhibitors were diluted with the kinase buffer.
The Eu-anti-phospho-tyrosine antibody was diluted to a concentration of 8 nM/L using detection buffer.
The compounds to be tested were 4-fold diluted with a multi-channel pipette to the 8th concentration, i.e., from 400 μM to 24.4 nM, with a final DMSO concentration of 4%. The experiment was set up in duplicate wells. 2.5 μL of each concentration gradient of the inhibitor was added to the microplate, followed by 5 μL of CDK9-CyclinT1 enzyme (2 ng), and 2.5 μL of a mixture of substrate and ATP (8 mM ATP, 50 nM Ulight-4E-BP1 peptide). At this point, the final concentration gradient of the compound was 100 μM diluted to 6.1 nM. The reaction system was reacted at 25° C. for 120 minutes. After the reaction, 5 μL of stop solution was added to each well, and the reaction was continued at 25° C. for 5 minutes. After stopping the reaction, 5 μL of Eu-anti-phospho-tyrosine antibody dilution was added to each well, and the mixture was reacted at 25° C. for 60 minutes. Data were then collected using the PerkinElmer Nivo multimode microplate reader in TR-FRET mode (excitation wavelength: 320 nm, emission wavelength: 665 nm).
Using the equation (Sample−Min)/(Max−Min)*100% to convert the raw data into inhibition rate, the IC50 value may be obtained by curve fitting with four parameters (obtained by “log (inhibitor) vs. response—Variable slope” mode in GraphPad Prism). Table 1 provides the CDK9-CyclinT1 enzymatic inhibitory activity of the compounds of the present disclosure.

The subject of the next test is OVCAR3 cells. Nature of the test: In vitro OVCAR3 cell activity assay (CellTiter-Glo proliferation). Type of test: cell-based. Conditions: Homo sapiens, OVCAR-3, 72 h, 3 days incubation. The procedure:
Experimental Example 5: In Vitro OVCAR3 Cell Activity Assay
1640 culture medium, fetal bovine serum, penicillin/streptomycin antibiotics were purchased from WISENT. CellTiter-Glo (cell viability chemiluminescence detection reagent) reagent was purchased from Promega. OVCAR3 cell line was purchased from Nanjing Cobioer Biosciences Co. Ltd. Nivo multimode microplate reader (PerkinElmer).
The OVCAR3 cells were seeded in a white 96-well plate, with 80 μL of cell suspension per well, containing 2000 OVCAR3 cells each. The cell plate was incubated overnight in a CO2 incubator.
The compounds to be tested were 5-fold diluted with a multi-channel pipette to the 8th concentration, i.e., diluted from 200 μM to 0.512 nM, and the experiment was set up in duplicate wells. 78 μL of culture medium was added to an intermediate plate, and then 2 μL of gradient diluted compound per well was transferred to the intermediate plate according to the corresponding position. After mixing well, the compound was transferred to the cell plate at 20 μL per well. The concentration of the compound transferred to the cell plate ranged from 1 μM to 0.0026 nM. The cell plate was incubated in a CO2 incubator for 3 days. Another cell plate was prepared to measure the signal on the day of drug addition as the maximum value (denoted as Max in the equation below) for data analysis. 25 μL of cell viability chemiluminescence detection reagent was added to each well of this cell plate, and incubated at room temperature for 10 minutes to stabilize the luminescent signal. A multimode microplate reader was used for reading. […]
Using the equation (Sample−Min)/(Max−Min)*100% to convert the raw data into inhibition rate, the IC50 value may be obtained by curve fitting with four parameters (obtained by “log (inhibitor) vs. response—Variable slope” mode in GraphPad Prism). Table 1 provides the inhibitory activity of the compounds of the present disclosure on the proliferation of OVCAR3 cells.
On the technique in general: Cellular ATP, detected with luciferase, serves as a proxy for viable cell number.

By IC50 is commonly meant the midpoint of a concentration-inhibition curve. High values mean weaker potency, low ones greater potency.

CDK7/CyclinH/MAT1, sequence (P50613 whole entry): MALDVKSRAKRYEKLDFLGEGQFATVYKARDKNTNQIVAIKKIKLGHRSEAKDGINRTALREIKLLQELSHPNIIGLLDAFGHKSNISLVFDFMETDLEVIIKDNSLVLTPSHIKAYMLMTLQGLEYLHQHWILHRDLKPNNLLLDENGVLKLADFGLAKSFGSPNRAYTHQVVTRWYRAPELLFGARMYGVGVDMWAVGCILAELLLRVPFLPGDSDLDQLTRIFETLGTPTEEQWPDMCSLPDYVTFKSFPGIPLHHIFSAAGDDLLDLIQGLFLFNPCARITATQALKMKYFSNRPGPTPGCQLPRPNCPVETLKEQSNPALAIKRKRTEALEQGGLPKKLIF
CDK7/CyclinH/MAT1, sequence (P51946 whole entry partner): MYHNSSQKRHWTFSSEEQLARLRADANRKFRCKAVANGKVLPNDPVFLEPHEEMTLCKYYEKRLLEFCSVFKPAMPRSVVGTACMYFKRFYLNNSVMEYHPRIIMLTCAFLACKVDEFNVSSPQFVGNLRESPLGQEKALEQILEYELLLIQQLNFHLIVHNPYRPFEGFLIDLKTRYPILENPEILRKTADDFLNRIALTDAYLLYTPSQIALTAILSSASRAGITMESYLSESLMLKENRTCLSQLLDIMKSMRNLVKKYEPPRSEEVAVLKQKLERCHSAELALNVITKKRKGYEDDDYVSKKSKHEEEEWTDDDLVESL
CDK7/CyclinH/MAT1, sequence (P51948 whole entry partner): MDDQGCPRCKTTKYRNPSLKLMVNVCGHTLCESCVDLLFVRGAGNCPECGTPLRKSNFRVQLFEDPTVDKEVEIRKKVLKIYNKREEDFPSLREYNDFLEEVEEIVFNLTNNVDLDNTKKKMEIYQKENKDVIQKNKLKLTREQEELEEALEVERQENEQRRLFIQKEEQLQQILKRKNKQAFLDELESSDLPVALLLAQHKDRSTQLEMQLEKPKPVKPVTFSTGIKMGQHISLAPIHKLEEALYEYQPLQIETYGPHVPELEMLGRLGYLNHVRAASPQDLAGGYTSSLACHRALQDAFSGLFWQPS
CDK9-CyclinT1, sequence (P50750 whole entry): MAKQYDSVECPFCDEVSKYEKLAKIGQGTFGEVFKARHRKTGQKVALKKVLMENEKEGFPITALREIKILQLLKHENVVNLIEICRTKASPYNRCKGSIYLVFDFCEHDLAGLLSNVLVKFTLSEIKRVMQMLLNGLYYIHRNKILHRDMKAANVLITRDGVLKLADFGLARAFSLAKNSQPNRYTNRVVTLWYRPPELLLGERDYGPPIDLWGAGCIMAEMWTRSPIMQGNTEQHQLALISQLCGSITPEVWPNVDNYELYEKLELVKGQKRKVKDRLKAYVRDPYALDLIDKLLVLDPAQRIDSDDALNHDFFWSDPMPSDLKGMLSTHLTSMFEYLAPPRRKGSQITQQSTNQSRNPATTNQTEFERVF
CDK9-CyclinT1, sequence (O60563 whole entry partner): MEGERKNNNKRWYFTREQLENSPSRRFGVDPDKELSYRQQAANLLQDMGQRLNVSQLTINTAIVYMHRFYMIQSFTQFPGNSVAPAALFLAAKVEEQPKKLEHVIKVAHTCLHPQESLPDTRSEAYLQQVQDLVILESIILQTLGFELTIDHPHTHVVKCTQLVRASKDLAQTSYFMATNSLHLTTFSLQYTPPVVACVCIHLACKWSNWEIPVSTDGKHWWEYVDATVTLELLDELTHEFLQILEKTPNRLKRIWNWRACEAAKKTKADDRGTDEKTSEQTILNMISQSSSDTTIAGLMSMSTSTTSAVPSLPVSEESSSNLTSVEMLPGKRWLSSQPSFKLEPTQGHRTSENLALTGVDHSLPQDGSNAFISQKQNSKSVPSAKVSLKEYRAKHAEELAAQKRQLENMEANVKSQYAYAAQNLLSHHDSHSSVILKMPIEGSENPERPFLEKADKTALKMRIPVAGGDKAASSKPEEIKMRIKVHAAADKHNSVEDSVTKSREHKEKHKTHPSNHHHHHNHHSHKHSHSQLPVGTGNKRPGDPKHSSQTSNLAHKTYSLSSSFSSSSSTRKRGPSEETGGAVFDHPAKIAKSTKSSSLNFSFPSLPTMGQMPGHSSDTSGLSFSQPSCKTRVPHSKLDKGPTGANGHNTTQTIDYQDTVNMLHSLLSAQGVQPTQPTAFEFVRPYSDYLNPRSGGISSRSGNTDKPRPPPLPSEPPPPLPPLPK

Regarding `CN1CCCCN2CCCC[C@@H](C2)Nc2ncc(C(F)(F)F)c(n2)-c2c[nH]c3c(P(C)(C)=O)c(ccc23)C1=O` [Compound 3], the values for the IC50 against CDK7/CyclinH/MAT1, against CDK9-CyclinT1 and with OVCAR3 cells were 1.1 nM, greater than 1000 nM and 0.6 nM, respectively.

Consider `CP(C)(=O)c1c2ccc3c(c[nH]c13)-c1nc(ncc1C(F)(F)F)N[C@H]1CCCN(CCCCCCO2)C1` [Compound 4], for which the IC50 was 1.6 nM against CDK7/CyclinH/MAT1, greater than 1000 nM against CDK9-CyclinT1 and 0.2 nM in the test on OVCAR3 cells.

As for `CP(C)(=O)c1c2ccc3c(c[nH]c13)-c1nc(ncc1C(F)(F)F)N[C@H]1CCCN(CCCCNC2=O)C1` [Compound 5], the IC50 was 1.2 nM against CDK7/CyclinH/MAT1, greater than 1000 nM at CDK9-CyclinT1 and 0.2 nM in the test on OVCAR3 cells.

`CP(C)(=O)c1c2ccc3c(c[nH]c13)-c1nc(ncc1C(F)(F)F)N[C@H]1CCCCN(CCCCNC2=O)C1` [Compound 6]: the IC50 against CDK7/CyclinH/MAT1 was 1.4 nM; at CDK9-CyclinT1, greater than 1000 nM; in the test on OVCAR3 cells it was 0.6 nM.

Regarding `CN1CCCCN2CCC[C@@H](C2)Nc2ncc(C(F)(F)F)c(n2)-c2c[nH]c3c(P(C)(C)=O)c(ccc23)C1=O` [Formate of compound 1], the IC50 turned out to be 1 nM against CDK7/CyclinH/MAT1, 723 nM on CDK9-CyclinT1 and 0.3 nM with OVCAR3 cells.

The record behind these values is US20250109156A1, “INDOLE-CONTAINING MACROCYCLIC COMPOUNDS AND USES THEREOF” (JIANGSU AOSAIKANG PHARMACEUTICAL CO., LTD., priority 2022, published 2025).
